According to PubChem BioAssay AID540252 (Sanford-Burnham Center for Chemical Genomics, 2011):
Calls of active or inactive are those of the source. No rule for the calls is given here.

molecular target: glucose-6-phosphate dehydrogenase-6-phosphogluconolactonase (Plasmodium falciparum 3D7); assay: PfG6PD enzyme inhibitors, direct NADPH readout, dose response, orthogonal assay, biochemical, end-point NADPH detection (AID 540252); details: purified PfG6PD enzyme

| SMILES | IC50 |
| --- | --- |
| O=C(O)c1ccccc1NS(=O)(=O)c1cccc(-n2sc3ccccc3c2=O)c1 | > 80 µM (inactive) |
| Cc1ccc(-c2csc(NC(=O)c3ccccc3F)c2C(=O)O)cc1 | > 80 µM (inactive) |
| ClC(Cl)(c1nnnn1-c1ccccc1)c1nnnn1-c1ccccc1 | 56.2 µM |
| CNS(=O)(=O)c1ccc(-c2ccc(C=C3C(=O)NC(=O)NC3=O)o2)cc1 | > 80 µM (inactive) |
| COc1cc(NCc2ccccc2)c2ncn(Cc3ccccc3)c2c1 | > 80 µM (inactive) |
| CCC(C)c1ccccc1OCCn1ccnc1 (configuration not stated) | > 80 µM (inactive) |
| C=CCSc1nc2sc3c(c2c(=O)n1CC)CCc1ccccc1-3 | > 80 µM (inactive) |
| Cn1c(=O)[nH]c(=O)c2c1nc(SCCN1CCCCC1)n2CCCc1ccccc1 | > 80 µM (inactive) |
| Cc1cccc(-n2c(=S)[nH]c3sc4c(c3c2=O)CCc2ccccc2-4)c1 | > 80 µM (inactive) |
| Cc1ccc(/C=C/C(=O)NCC2COc3ccccc3O2)o1 (configuration not stated) | > 80 µM (inactive) |
| O=C(Nc1ccccc1C(=O)N/N=C/c1ccco1)c1ccccc1Cl | > 80 µM (inactive) |
| O=C1C=CC(=O)N1CCNc1ncc(C(F)(F)F)cc1Cl | 65.4 µM |
| CCOC(=O)c1c2ccc(OCC(=O)NN)cc2n2ccccc12 | > 80 µM (inactive) |
| O=c1c2ccccc2[se]n1-c1ccccc1 | 13.5 µM |
| O=C(CCc1ccc(O)c(O)c1)N/N=C/c1cc2c(cc1[N+](=O)[O-])OCO2 | > 80 µM (inactive) |
| C#CCCc1cscc1/C=[N+](\[O-])c1ccc(C(=O)OCC)cc1 | > 80 µM (inactive) |
| N#Cc1ccc(Oc2cccc3cccnc23)c([N+](=O)[O-])c1 | > 80 µM (inactive) |
| O=c1c2cc(F)ccc2sn1-c1ccc(F)cc1 | 25.5 µM |
| CCc1cc(-c2n[nH]c(C)c2-c2ccccc2Cl)c(O)cc1OC | > 80 µM (inactive) |
| CCOC(=O)c1ccc(-n2c(N)c(C(=O)NCC3CCCO3)sc2=S)cc1 (configuration not stated) | > 80 µM (inactive) |
| Cn1c2ccccc2c2ccc3c(c21)C(=O)C=CC3=O | > 80 µM (inactive) |
| COc1ccc(/C=C/c2nc3ccccc3n2Cc2ccc(OC)c(OC)c2)cc1 | > 80 µM (inactive) |
| COC1=C(Br)C(=O)c2nc(C)ccc2C1=O | > 80 µM (inactive) |
| Brc1cc2[nH]cnc2c2ccccc12 | > 80 µM (inactive) |

| SMILES | IC50 |
| --- | --- |
| O=c1[nH]c(NCCO)c(N=Cc2ccccc2)c(=O)[nH]1 | > 80 µM (inactive) |
| NS(=O)(=O)c1ccc(N/N=C/c2ccc(O)c(O)c2O)c([N+](=O)[O-])c1 | 36.3 µM |
| COc1ccc(C(=O)Nc2cc(Cl)ccc2C(=O)O)cc1 | > 80 µM (inactive) |
| CCNc1cc2c(cc1O)CCC1C2CCC2(C)C(O)CCC12 (configuration not stated) | > 80 µM (inactive) |
| Cc1ccsc1/C=N/NC(=O)c1cccc(S(=O)(=O)Nc2ccccc2Cl)c1 | > 80 µM (inactive) |
| CCN1CCCC1CNC(=O)c1ccc2c(c1)NC(=O)/C(=C\c1ccc(C)cc1)S2 (configuration not stated) | > 80 µM (inactive) |
| O=C1C=C(NCCc2cc(Br)c(O)c(Br)c2)C(=O)c2ncccc21 | > 80 µM (inactive) |
| Nc1cc(N)c(OCC(F)(F)F)cc1OCC(F)(F)F | > 80 µM (inactive) |
| O=C(Cc1ccccc1)NCC(=O)OCC(=O)c1ccc([N+](=O)[O-])cc1 | 64 µM |
| Cn1c(=O)[nH]c(=O)c2c1[nH]c(=S)n2CCCc1ccccc1 | 66.1 µM |
| COc1ccc(CN(C)S(=O)(=O)c2nnc(NC(=O)c3cccc(C)c3)s2)cc1OC | > 80 µM (inactive) |
| CC(=O)Nc1cc(OC(C)=O)c2nonc2c1OC(C)=O | > 80 µM (inactive) |
| Cc1ccc2nc(SCC(=O)N/N=C/c3ccco3)cc(C)c2c1 | > 80 µM (inactive) |
| CCN(CC)c1ccc(NC(=O)c2cccc(C)c2)cc1S(=O)(=O)Nc1ccccc1OC | > 80 µM (inactive) |
| CN(C)c1ccc(C=c2c3ccccc3n3c2c2ccccc2[n+]3C)cc1 | > 80 µM (inactive) |
| S=c1ncc2[nH]c(=S)[nH]c2[nH]1 | 60.5 µM |
| CCN(CC)c1ccc(C(=C2C=CC(=[N+](CC)CC)C=C2)c2ccccc2)cc1 | > 80 µM (inactive) |
| CN1CCN(C(=S)c2ccc(Br)cc2)CC1 | > 80 µM (inactive) |
| Cc1ccc(-n2sc3cc(F)ccc3c2=O)c(C)c1 | 12.2 µM |
| CCOC(=O)c1ccc(/[N+]([O-])=C/c2ccccc2)cc1 | > 80 µM (inactive) |
| O=[N+]([O-])c1cnc(Sc2ccncn2)c([N+](=O)[O-])c1 | 49.3 µM |
| COc1cc(-c2cc(OC)c(O)c(OC)c2)cc(OC)c1O | > 80 µM (inactive) |
| Cc1c(/C=C/C(=O)c2ccc(Cl)s2)cnn1C | > 80 µM (inactive) |
